According to PMC8465942, “Cyano- and Ketone-Containing Selenoesters as Multi-Target Compounds against Resistant Cancers” (Cancers, 2021):
Entries after “also recorded” stand apart in the source; their conditions may differ. Marks after values point to notes of the source that are not given here.

Legend:
[1] = system: Colo 205 human colonic adenocarcinoma cell line; assay: Cytotoxicity (MTT) on sensitive Colo 205 cells; format: cell-based; details: for IC50: Homo sapiens, COLO 205, 24 h, MTT, read-out: Colo 205 (IC50 µM) Mean; for SI MRC-5/Colo 205: ratio IC50 non-tumour cells / IC50 cancer cells
Source text: (§1) Three cell lines have been used in this study: the doxorubicin-sensitive Colo 205 (CCL-222, ATCC, Manassas, VA, USA) human colonic adenocarcinoma cell line; the multidrug resistant Colo 320/MDR-LRP expressing P-gp (MDR1)-LRP (CCL-220.1, ATCC) human colonic adenocarcinoma cell line; and the MRC-5 human embryonal lung fibroblast cell line (CCL-171, ATCC). The colon adenocarcinoma cell lines were purchased from LGC Promochem (Teddington, UK), and the MRC-5 cell line was purchased from Sigma-Aldrich (Merck KGaA, Darmstadt, Germany). Their culture conditions are as follows: Colo 205 (CCL-222, ATCC) and Colo 320/MDR-LRP expressing P-gp (MDR1)-LRP (CCL-220.1, ATCC) human colon adenocarcinoma cell lines were cultured in RPMI 1640 medium, supplemented with 10% FBS, 2 mM L-glutamine, 1 mM Na-pyruvate, and […]. The cell lines were incubated at 37 °C, 5% CO2, and 95% air atmosphere. The semi-adherent human colon cancer cells were detached with a Trypsin-Versene (EDTA) solution for 5 min at 37 °C. MRC-5 human embryonal lung fibroblast cells were cultured in EMEM containing 4.5 g/L of glucose and supplemented with a non-essential amino acid mixture, a selection of vitamins, and 10% FBS. The cell lines were incubated at 37 °C, 5% CO2, and 95% air atmosphere.
(§2) The effects of increasing concentrations of the compounds on cell growth were tested in 96-well flat-bottomed microtiter plates. Moreover, 10^4 of human colonic adenocarcinoma cells in 100 μL of the medium (RPMI-1640) were added to each well, except for the medium control wells. The adherent human embryonic lung fibroblast cell line was seeded in the EMEM medium for 4 h before the assay. The two-fold serial dilutions of the compounds were made in a separate plate (0.19–100 μM), and then transferred to the plates containing the adherent corresponding cell line. Culture plates were incubated at 37 °C for 24 h. At the end of the incubation period, 20 μL of MTT (thiazolyl blue tetrazolium bromide) solution (from a 5 mg/mL stock solution) were added to each well. After incubation at 37 °C for 4 h, 100 μL of sodium dodecyl sulfate (SDS) solution (10% SDS in 0.01 M HCl) was added to each well, and the plates were further incubated at 37 °C overnight. Cell growth was determined by measuring the optical density (OD) at 540 nm (ref. 630 nm) with a Multiscan EX ELISA reader (Thermo Labsystems, Cheshire, WA, USA). Inhibition of cell growth was expressed as IC50 values, defined as the inhibitory dose that reduces the growth of the cells exposed to the tested compounds by 50%. IC50 values and the SD of triplicate experiments were calculated by using GraphPad Prism software version 5.00 for Windows, with a non-linear regression curve fit (GraphPad Software, San Diego, CA, USA; www.graphpad.com, accessed on 12 July 2021). Doxorubicin (from a 2 mg/mL stock solution, Teva Pharmaceuticals) was used as a positive control.
(§3) The selectivity indexes (SI) were calculated as the ratio of the IC50 value in the non-tumour cells and the IC50 in the cancer cell lines. The compound’s activity towards cancer cells is considered as strongly selective if the selectivity index (SI) value is higher than 6, moderately selective if 3 < SI < 6, slightly selective if 1 < SI < 3, and non-selective if SI is lower than 1 [16].

[2] = system: Colo 320/MDR-LRP human colonic adenocarcinoma cell line; assay: Cytotoxicity (MTT) on resistant Colo 320 cells; format: cell-based; details: for IC50: Homo sapiens, COLO 320, 24 h, MTT, read-out: Colo 320 (IC50 µM) Mean; for SI MRC-5/Colo 320: ratio IC50 non-tumour cells / IC50 cancer cells
Source text: as §1, §2, §3

[3] = Cytotoxicity (MTT) on normal MRC-5 fibroblasts; format: cell-based; details: human
Source text: as §1, §2

[4] = system: HepG2 (hepatocellular carcinoma); assay: Cytotoxicity on HepG2 cells; format: cell-based; details: Homo sapiens
Protocol: (§4) The activity of selenoesters was tested on several cancer cell lines, including HepG2 (hepatocellular carcinoma, CCL-23TM, ATCC); HeLa (cervical adenocarcinoma, CCL-2TM, ATCC); B16 (skin melanoma, CCL-6322TM, ATCC); and a non-cancerous cell line, HDF (human dermal fibroblasts, Sigma-Aldrich). HepG2, HeLa, B16, and HDF cell lines were cultivated in EMEM medium supplemented with 10% FBS, 2 mM L-glutamine, and 1% penicillin-streptomycin mixture. The HaCaT cell line was cultivated in DMEM medium supplemented with 10% FBS and 1% penicillin-streptomycin mixture. All of the cells were cultivated in a CO2 incubator (5% CO2, 37 °C). Twice per week, the cell lines were passaged according to a standardized protocol with a trypsin-EDTA solution.
as §3

[5] = system: HeLa (cervical adenocarcinoma); assay: Cytotoxicity on HeLa cells; format: cell-based; details: Homo sapiens
Protocol: as §4, §3

[6] = system: B16 (skin melanoma); assay: Cytotoxicity on B16 cells; format: cell-based, murine; details: Mus musculus
Protocol: as §4, §3

[7] = system: resistant Colo 320 colon adenocarcinoma cells expressing the ABCB1 transporter; assay: Checkerboard combination assay with doxorubicin; format: cell-based, human
Protocol: A checkerboard microplate method was applied to study the effect of drug interactions between the selenocompounds and the chemotherapeutic drug doxorubicin on resistant Colo 320 colon adenocarcinoma cells expressing the ABCB1 transporter. Results were expressed in terms of the combination index (CI) values at 50% growth inhibition (ED50), which were determined by using CompuSyn software to plot 4 or 5 data points for each ratio.
To perform the experiment, the dilutions of doxorubicin were made in a horizontal direction in 100 µL, and the dilutions of the Se-compounds were made vertically in the microtiter plate in a volume of 50 µL. The cells were re-suspended in the culture medium and distributed into each well in 50 µL portions containing 6000 cells. The plates were incubated for 72 h at 37 °C in a CO2 incubator. The cell growth rate was determined after MTT staining. At the end of the incubation period, 20 μL of MTT solution was added to each well. After incubation at 37 °C for 4 h, 100 μL of SDS was added to each well and the plates were further incubated at 37 °C overnight. The optical density (OD) was measured at 540/630 nm with the Multiscan EX ELISA reader.

[8] = system: HaCaT cell line; assay: Toxicity on HaCaT cells (IC10 used as dose); format: cell-based; details: Homo sapiens, concentration inhibiting 10% of the population, highest non-toxic concentration, read-out: Dose IC10
Protocol: as §4, with “solution. […]” for “solution.”
Wound healing activity of selenoesters was evaluated as the ability of the cells to migrate and close the gap created on the monolayer of human keratinocytes (HaCaT cell line). The tested substances were applied in the highest possible non-toxic concentration (IC10, concentration inhibiting 10% of the population). In general, ketone-selenoesters were more toxic (except K4 and K1) than cyano-selenoesters (except N4); therefore, they were applied at lower doses (0.17–0.30 µM) when compared to cyanoselenoesters (0.36–0.64 µM). Compounds K1, K4, and N4 were applied at a concentration of 0.30, 0.46, and 0.20 µM, respectively. As could be seen in Table 8, all ketone-selenoesters stimulated wound healing more effectively in comparison to both untreated control (p < 0.0000005) and allantoin (p < 0.00005). […] Only samples N1, N2, N4, and N7 closed effectively the damaged wound in 24 h, with the gap closure around 70%.

[9] = system: HepG2 (hepatocellular carcinoma); assay: Cytotoxicity on HepG2 cells; format: cell-based, human; details: ratio IC50 non-tumour cells / IC50 cancer cells
[10] = system: human keratinocyte (HaCaT); assay: Wound healing scratch assay; format: cell-based; details: 50 µg/mL positive control
Protocol: Wound healing activity was realized using human keratinocyte (HaCaT, Thermo Fisher Scientific, Waltham, MA, USA). Wound healing was measured in vitro by scratch assay, as the migration rate of the cells to close the gap was created, as described by Ling et al., with slight modifications. Briefly, HaCaT cells at the concentration of 5×10^5 cells were seeded into 12-well plates and incubated at 37 °C and 5% CO2 until the cells formed a uniform layer. After layer formation, the cells were washed with PBS and then scratched with a sterile micropipette tip. […] The images of the scratch area were captured using an inverted microscope in 4× magnification at different time intervals (0 h, 24 h, 48 h) and evaluated using ImageJ software (National Institutes of Health, Bethesda, MD, USA). All of the experiments were performed in four replicates, and a minimum of five measurements were considered from each image captured. Dean–Dixon’s test was used to remove the outliners in the values measured, and further statistical significances between the groups were established by t-test (Excel, Microsoft Office, Redmond, WA, USA). The wound closure was calculated as the ratio of the gap size at the beginning minus the gap size at the evaluated time.

Row | SMILES | IC50 [1] [µM] | SI MRC-5/Colo 205 [1] | IC50 [2] [µM] | SI MRC-5/Colo 320 [2] | IC50 at 24 h [3] [µM] | IC50 [4] [µM] | IC50 [5] [µM] | IC50 [6] [µM] | IC10 [8] [µM] | melting point [°C] | SI MRC-5/HepG2 [9] | other results
1 | N#CC[Se]C(=O)c1cccs1 [N1, Se-(Cyanomethyl) Thiophene-2-carboselenoate] | 2.37 | >6 * | 7.64 | >6 * | > 100 | 11.3 | 2 | 1.9 | 0.4 | 50 to 52 | >6 * | Interaction with doxorubicin ([7]; in at least one of the ratios tested): synergistic manner; also recorded: synergistic effect; Type of Interaction ([7]; ratio 1.7:1, starting conc. 15 µM): Antagonism; Type of Interaction ([7]; ratio 3.4:1, starting conc. 15 µM): Synergism; Type of Interaction ([7]; ratio 6.8:1, starting conc. 15 µM): Synergism; Type of Interaction ([7]; ratio 13.6:1, starting conc. 15 µM): Additive effect; Type of Interaction ([7]; ratio 27.2:1, starting conc. 15 µM): Synergism
2 | N#CC[Se]C(=O)c1ccc(F)c(Cl)c1 [N6, Se-(Cyanomethyl) 3-Chloro-4-fluorobenzoselenoate] | 2.24 | >6 * | 5.19 | >6 * | > 100 | 9.6 | 1.3 | 1.7 | 0.6 | 73 to 75 | >6 * | Type of Interaction ([7]; ratio 1.2:1, starting conc. 10 µM): Antagonism; Type of Interaction ([7]; ratio 4.8:1, starting conc. 10 µM): Antagonism; Type of Interaction ([7]; ratio 9.6:1, starting conc. 10 µM): Antagonism; Type of Interaction ([7]; ratio 19.2:1, starting conc. 10 µM): Antagonism; Type of Interaction ([7]; ratio 38.4:1, starting conc. 10 µM): Antagonism
3 | NC(=O)NC1NC(=O)NC1=O (centres unmarked) [PC, Allantoin] | – | – | – | – | – | – | – | – | – | – | – | Closure (%) 24 h ([10]; 24 h): 70.37%; Closure (%) 48 h ([10]; 48 h): 84.63%
